In patent US20100273808A1 (Millennium Pharmaceticals, Inc., priority 2008, published 2010):
Where two headings read alike, the source gives them in different places.

Assay: Equilibrium aqueous solubility under pH controlled conditions
Format: physicochemical

COc1cc2c(N3CCN(C(=O)Nc4ccc(OC(C)C)cc4)CC3)ncnc2cc1OCCCN1CCCCC1 [compound of formula (II), 4-[6-methoxy-7-(3-piperidin-1-yl-propoxy)quinazolin-4-yl]piperazine-1-carboxylic acid(4-isopropoxyphenyl)-amide]
solubility (in water, pH 6.95, read-out: solubility): ~1.24 mg/mL

COc1cc2c(N3CCN(C(=O)Nc4ccc(OC(C)C)cc4)CC3)ncnc2cc1OCCCN1CCCCC1.C[C@H](O)C(=O)O [Form 1, 4-[6-methoxy-7-(3-piperidin-1-yl-propoxy)quinazolin-4-yl]piperazine-1-carboxylic acid(4-isopropoxyphenyl)-amide (L)-lactate Form 1]
solubility (aqueous buffer, thermodynamic from solid, in water, physiologically relevant pH's, read-out: solubility): > 450 mg/mL
solubility (pH 3.51, aqueous buffer, thermodynamic from solid, equilibrium aqueous, pH 3.51, read-out: Solubility): 496 mg/mL
solubility (pH 3.97, aqueous buffer, thermodynamic from solid, equilibrium aqueous, pH 3.97, read-out: Solubility): 465 mg/mL
solubility (pH 4.23, aqueous buffer, thermodynamic from solid, equilibrium aqueous, pH 4.23, read-out: Solubility): 511 mg/mL
solubility (pH 5.96, aqueous buffer, thermodynamic from solid, equilibrium aqueous, pH 5.96, read-out: Solubility): 458 mg/mL

COc1cc2c(N3CCN(C(=O)Nc4ccc(OC(C)C)cc4)CC3)ncnc2cc1OCCCN1CCCCC1.C[C@H](O)C(=O)O [Form 4, 4-[6-methoxy-7-(3-piperidin-1-yl-propoxy)quinazolin-4-yl]piperazine-1-carboxylic acid(4-isopropoxyphenyl)-amide (L)-lactate Form 4]
solubility (in water, physiologically relevant pH's): greater than 325 mg/mL
solubility (pH 3.65, aqueous buffer, thermodynamic from solid, equilibrium aqueous, pH 3.65, read-out: Solubility): 359 mg/mL
solubility (pH 5.85, aqueous buffer, thermodynamic from solid, equilibrium aqueous, pH 5.85, read-out: Solubility): 412 mg/mL
solubility (pH 6.03, aqueous buffer, thermodynamic from solid, equilibrium aqueous, pH 6.03, read-out: Solubility): 327 mg/mL
